The values that follow come from paper PMC11985408, “Tsrp1 Is a Novel Cyclic Diguanosine Monophosphate Effector that Plays a Role in the Organic-Solvent Tolerance of Rhodococcus ruber” (Journal of Microbiology and Biotechnology, 2025).

The test addresses Tsrp1. The test can be described thus: localized surface plasmon resonance, Tsrp1 immobilised on NTA chip, one-to-one model. The format is binding, Rhodococcus ruber. The note with it: HEPES-buffered saline pH 7.4; c-di-GMP 62.5-500 μM; unit printed as mM in b36 but μM in abstract; read-out: dissociation constant.

Turning to `Nc1nc2c(ncn2[C@@H]2O[C@@H]3COP(=O)(O)O[C@H]4[C@@H](O)[C@H](n5cnc6c(=O)[nH]c(N)nc65)O[C@@H]4COP(=O)(O)O[C@H]3[C@H]2O)c(=O)[nH]1` [c-di-GMP], the Kd was found to be 0.064 ± 0.00684 mM.
